According to the NIST ThermoML archive (doi:10.1021/je050389b):
± gives the expanded uncertainty stated by the source.

Test: xn = mol fraction of the nth substance listed
Conditions: Liquid; for viscosity: 100.5 kPa; for mass density: 101 kPa

CCOC(=O)Cc1ccccc1 [ethyl phenylacetate] + CCO
Conditions	mass density, 288.15 K [kg/m3]	mass density, 298.15 K [kg/m3]	mass density, 308.15 K [kg/m3]	mass density, 318.15 K [kg/m3]	viscosity, 288.15 K [mPa·s]	viscosity, 298.15 K [mPa·s]	viscosity, 308.15 K [mPa·s]	viscosity, 318.15 K [mPa·s]
x1 = 0.05	825.34 ± 0.22	816.54 ± 0.22	807.65 ± 0.23	798.61 ± 0.23	1.366 ± 0.019	1.127 ± 0.017	0.947 ± 0.016	0.798 ± 0.015
x1 = 0.1	852 ± 0.21	843.05 ± 0.21	834 ± 0.22	824.82 ± 0.22	1.393 ± 0.019	1.151 ± 0.018	0.967 ± 0.016	0.823 ± 0.015
x1 = 0.15	874.72 ± 0.2	865.65 ± 0.21	856.49 ± 0.21	847.17 ± 0.22	1.447 ± 0.02	1.195 ± 0.018	1.003 ± 0.017	0.855 ± 0.016
x1 = 0.2	894.42 ± 0.2	885.25 ± 0.21	875.99 ± 0.21	866.6 ± 0.22	1.513 ± 0.02	1.244 ± 0.018	1.044 ± 0.017	0.891 ± 0.016
x1 = 0.25	911.6 ± 0.2	902.37 ± 0.21	893.03 ± 0.21	883.57 ± 0.22	1.584 ± 0.021	1.298 ± 0.019	1.089 ± 0.017	0.93 ± 0.016
x1 = 0.3	926.72 ± 0.21	917.42 ± 0.21	908.03 ± 0.21	898.52 ± 0.22	1.663 ± 0.022	1.357 ± 0.019	1.138 ± 0.017	0.971 ± 0.016
x1 = 0.35	940.14 ± 0.21	930.79 ± 0.21	921.36 ± 0.22	911.82 ± 0.22	1.742 ± 0.022	1.418 ± 0.02	1.188 ± 0.018	1.012 ± 0.017
x1 = 0.4	952.17 ± 0.22	942.79 ± 0.22	933.33 ± 0.22	923.77 ± 0.22	1.822 ± 0.023	1.479 ± 0.02	1.239 ± 0.018	1.055 ± 0.017
x1 = 0.45	963.02 ± 0.22	953.61 ± 0.23	944.13 ± 0.23	934.56 ± 0.23	1.904 ± 0.024	1.543 ± 0.021	1.292 ± 0.019	1.099 ± 0.017
x1 = 0.5	972.79 ± 0.23	963.35 ± 0.23	953.86 ± 0.23	944.28 ± 0.24	1.989 ± 0.024	1.61 ± 0.021	1.344 ± 0.019	1.145 ± 0.018
x1 = 0.55	981.67 ± 0.23	972.24 ± 0.24	962.73 ± 0.24	953.16 ± 0.24	2.076 ± 0.025	1.677 ± 0.022	1.399 ± 0.02	1.191 ± 0.018
x1 = 0.6	989.81 ± 0.24	980.37 ± 0.24	970.86 ± 0.24	961.29 ± 0.24	2.164 ± 0.026	1.747 ± 0.022	1.455 ± 0.02	1.238 ± 0.018
x1 = 0.65	997.27 ± 0.25	987.81 ± 0.25	978.31 ± 0.25	968.75 ± 0.25	2.255 ± 0.027	1.821 ± 0.023	1.513 ± 0.02	1.286 ± 0.019
x1 = 0.7	1004.13 ± 0.26	994.68 ± 0.26	985.19 ± 0.26	975.65 ± 0.26	2.348 ± 0.028	1.895 ± 0.024	1.571 ± 0.021	1.336 ± 0.019
x1 = 0.75	1010.49 ± 0.27	1001.03 ± 0.27	991.56 ± 0.27	982.04 ± 0.27	2.446 ± 0.029	1.974 ± 0.024	1.635 ± 0.022	1.387 ± 0.02
x1 = 0.8	1016.36 ± 0.28	1006.93 ± 0.28	997.48 ± 0.28	987.98 ± 0.28	2.555 ± 0.03	2.053 ± 0.025	1.702 ± 0.022	1.441 ± 0.02
x1 = 0.85	1021.84 ± 0.3	1012.41 ± 0.29	1002.97 ± 0.29	993.53 ± 0.29	2.672 ± 0.031	2.14 ± 0.026	1.772 ± 0.023	1.498 ± 0.02
x1 = 0.9	1026.95 ± 0.31	1017.55 ± 0.31	1008.14 ± 0.3	998.73 ± 0.3	2.79 ± 0.032	2.23 ± 0.027	1.847 ± 0.023	1.558 ± 0.021
x1 = 0.95	1031.75 ± 0.33	1022.36 ± 0.32	1012.99 ± 0.32	1003.61 ± 0.31	2.919 ± 0.034	2.33 ± 0.028	1.914 ± 0.024	1.605 ± 0.021
x1 = 1	1036.35 ± 0.34	1026.96 ± 0.33	1017.6 ± 0.33	1008.26 ± 0.33	3.002 ± 0.035	2.384 ± 0.028	1.948 ± 0.024	1.624 ± 0.022

CCOC(=O)c1ccccc1 [ethyl benzoate] + CCO
Conditions	mass density, 288.15 K [kg/m3]	mass density, 298.15 K [kg/m3]	mass density, 308.15 K [kg/m3]	mass density, 318.15 K [kg/m3]	viscosity, 288.15 K [mPa·s]	viscosity, 298.15 K [mPa·s]	viscosity, 308.15 K [mPa·s]	viscosity, 318.15 K [mPa·s]
x1 = 0.05	824.59 ± 0.21	815.81 ± 0.22	806.92 ± 0.23	797.88 ± 0.23	1.342 ± 0.019	1.108 ± 0.017	0.926 ± 0.016	0.778 ± 0.015
x1 = 0.1	851.02 ± 0.2	842.08 ± 0.21	833.03 ± 0.21	823.84 ± 0.22	1.36 ± 0.019	1.123 ± 0.017	0.938 ± 0.016	0.793 ± 0.015
x1 = 0.15	874.07 ± 0.2	865.01 ± 0.2	855.84 ± 0.21	846.52 ± 0.21	1.388 ± 0.019	1.148 ± 0.018	0.959 ± 0.016	0.812 ± 0.015
x1 = 0.2	894.37 ± 0.19	885.22 ± 0.2	875.95 ± 0.2	866.54 ± 0.2	1.425 ± 0.02	1.176 ± 0.018	0.984 ± 0.016	0.833 ± 0.015
x1 = 0.25	912.35 ± 0.19	903.11 ± 0.19	893.77 ± 0.2	884.29 ± 0.2	1.465 ± 0.02	1.208 ± 0.018	1.012 ± 0.017	0.857 ± 0.016
x1 = 0.3	928.37 ± 0.18	919.07 ± 0.19	909.68 ± 0.19	900.15 ± 0.2	1.51 ± 0.02	1.244 ± 0.018	1.042 ± 0.017	0.881 ± 0.016
x1 = 0.35	942.79 ± 0.18	933.45 ± 0.19	924.02 ± 0.19	914.45 ± 0.19	1.557 ± 0.021	1.282 ± 0.018	1.072 ± 0.017	0.908 ± 0.016
x1 = 0.4	955.85 ± 0.18	946.47 ± 0.18	937 ± 0.19	927.41 ± 0.19	1.607 ± 0.021	1.321 ± 0.019	1.105 ± 0.017	0.935 ± 0.016
x1 = 0.45	967.71 ± 0.18	958.3 ± 0.18	948.81 ± 0.18	939.2 ± 0.19	1.661 ± 0.021	1.363 ± 0.019	1.138 ± 0.017	0.964 ± 0.016
x1 = 0.5	978.51 ± 0.18	969.07 ± 0.18	959.57 ± 0.18	949.95 ± 0.19	1.715 ± 0.022	1.405 ± 0.019	1.173 ± 0.018	0.993 ± 0.016
x1 = 0.55	988.43 ± 0.17	978.97 ± 0.17	969.46 ± 0.17	959.84 ± 0.17	1.773 ± 0.022	1.449 ± 0.02	1.209 ± 0.018	1.024 ± 0.017
x1 = 0.6	997.48 ± 0.16	988.07 ± 0.16	978.54 ± 0.16	968.93 ± 0.17	1.833 ± 0.023	1.496 ± 0.02	1.247 ± 0.018	1.055 ± 0.017
x1 = 0.65	1005.91 ± 0.16	996.46 ± 0.15	986.94 ± 0.16	977.35 ± 0.16	1.895 ± 0.023	1.544 ± 0.021	1.286 ± 0.019	1.089 ± 0.017
x1 = 0.7	1013.67 ± 0.16	1004.22 ± 0.15	994.7 ± 0.15	985.12 ± 0.15	1.959 ± 0.024	1.595 ± 0.021	1.326 ± 0.019	1.124 ± 0.017
x1 = 0.75	1020.94 ± 0.16	1011.5 ± 0.15	1002.01 ± 0.15	992.45 ± 0.15	2.028 ± 0.024	1.649 ± 0.021	1.37 ± 0.019	1.159 ± 0.018
x1 = 0.8	1027.63 ± 0.16	1018.2 ± 0.16	1008.72 ± 0.15	999.19 ± 0.15	2.099 ± 0.025	1.705 ± 0.022	1.416 ± 0.02	1.198 ± 0.018
x1 = 0.85	1033.99 ± 0.16	1024.57 ± 0.16	1015.13 ± 0.16	1005.64 ± 0.15	2.178 ± 0.026	1.767 ± 0.022	1.465 ± 0.02	1.241 ± 0.018
x1 = 0.9	1039.87 ± 0.17	1030.48 ± 0.16	1021.06 ± 0.16	1011.62 ± 0.15	2.267 ± 0.027	1.836 ± 0.023	1.521 ± 0.02	1.288 ± 0.019
x1 = 0.95	1045.45 ± 0.17	1036.09 ± 0.17	1026.72 ± 0.16	1017.33 ± 0.16	2.373 ± 0.027	1.917 ± 0.024	1.582 ± 0.021	1.335 ± 0.019
x1 = 1	1050.78 ± 0.17	1041.42 ± 0.17	1032.07 ± 0.17	1022.73 ± 0.16	2.444 ± 0.028	1.971 ± 0.024	1.624 ± 0.021	1.368 ± 0.019
